From PubChem BioAssay (NCI)
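Briefly, cells in 96-well plates were exposed to five compound concentrations for 48 h, and endpoints were estimated by linear interpolation. At the GI50, growth is halved. Definition used: TGI = concentration required for complete inhibition of growth.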

What was measured:
Experiment in all cases: DTP human tumour cell line panel, 48 h
K-562 leukemia = system: K-562 leukemia
UACC-62 melanoma = system: UACC-62 melanoma
OVCAR-4 ovarian = system: OVCAR-4 ovarian
NCI-H522 lung = system: NCI-H522 lung
SN12C renal = system: SN12C renal
A498 renal = system: A498 renal
786-0 renal = system: 786-0 renal
EKVX NSCLC = system: EKVX NSCLC
UACC-257 melanoma = system: UACC-257 melanoma
U251 CNS = system: U251 CNS

SMILES	GI50 (K-562 leukemia)	TGI (K-562 leukemia)	GI50 (UACC-62 melanoma)	TGI (UACC-62 melanoma)	GI50 (OVCAR-4 ovarian)	TGI (OVCAR-4 ovarian)	GI50 (NCI-H522 lung)	TGI (NCI-H522 lung)	GI50 (SN12C renal)	TGI (SN12C renal)	GI50 (A498 renal)	TGI (A498 renal)	GI50 (786-0 renal)	TGI (786-0 renal)	GI50 (EKVX NSCLC)	TGI (EKVX NSCLC)	GI50 (UACC-257 melanoma)	TGI (UACC-257 melanoma)	GI50 (U251 CNS)	TGI (U251 CNS)
CC1(C)OC2C(COS(N)(=O)=O)SC(n3cnc4cncnc43)C2O1 (stereo not given)	> 100 µM	> 100 µM	> 100 µM	> 100 µM	> 100 µM	> 100 µM	> 100 µM	> 100 µM	> 100 µM	> 100 µM	> 100 µM	> 100 µM	> 100 µM	> 100 µM	> 100 µM	> 100 µM	> 100 µM	> 100 µM	> 100 µM	> 100 µM
CC(NC(=O)c1ccccc1)(C(=O)O)C(=O)O	–	> 100 µM	–	> 100 µM	–	> 100 µM	–	> 100 µM	–	> 100 µM	–	> 100 µM	–	> 100 µM	–	> 100 µM	–	> 100 µM	–	> 100 µM
CC1CC[C@]2(C(=O)O)CCC3(C)C(=CCC4[C@@]5(C)CC[C@H](OS(=O)(=O)c6ccccc6)C(C)(C)C5CC[C@]43C)[C@@H]2[C@H]1C (stereo not given in full)	–	> 100 µM	–	> 100 µM	–	> 100 µM	–	> 100 µM	–	> 100 µM	–	> 100 µM	–	> 100 µM	–	> 100 µM	–	> 100 µM	–	> 100 µM
Oc1[nH]c2cc(Cl)ccc2c1/C=c1/ccc2c(c1)N=C(c1cc(F)cc(F)c1)N=2	0.821 µM	12.1 µM	0.71 µM	12.4 µM	4.25 µM	16.1 µM	1.19 µM	3.38 µM	3.89 µM	16.5 µM	1.24 µM	6.36 µM	3.31 µM	12.8 µM	5.27 µM	32.4 µM	0.927 µM	19.2 µM	1.06 µM	2.89 µM
CC(=O)N(Cc1ccccc1)c1ccccc1I(=O)=O	14 µM	29.5 µM	> 100 µM	> 100 µM	65.4 µM	> 100 µM	22.4 µM	> 100 µM	> 100 µM	> 100 µM	49.7 µM	> 100 µM	57.8 µM	> 100 µM	88.5 µM	> 100 µM	> 100 µM	> 100 µM	34.5 µM	> 100 µM
CC(=O)Oc1ccc(/C=N/NC(N)=S)nc1	6 µM	> 100 µM	4.36 µM	> 100 µM	6.03 µM	> 100 µM	2.61 µM	> 100 µM	4.06 µM	> 100 µM	4.88 µM	58.9 µM	3.53 µM	16.1 µM	10.8 µM	> 100 µM	14.2 µM	57.7 µM	4.17 µM	> 100 µM
O=S(=O)(c1ccc(O)c(C=Nc2ccc(Cl)cc2)c1)c1ccc(O)c(C=Nc2ccc(Cl)cc2)c1	–	> 100 µM	–	> 100 µM	–	> 100 µM	–	> 100 µM	–	> 100 µM	–	> 100 µM	–	> 100 µM	–	> 100 µM	–	> 100 µM	–	> 100 µM
COc1cnc2cc(C(=O)O)c3ccccc3c2c1	–	> 100 µM	–	> 100 µM	–	> 100 µM	–	> 100 µM	–	> 100 µM	–	> 100 µM	–	> 100 µM	–	> 100 µM	–	> 100 µM	–	> 100 µM
CC1(C)CC[C@]2(C(N)=O)CC[C@]3(C)C(=CC[C@@H]4[C@@]5(C)C/C(=C/c6ccncc6)C(=O)C(C)(C)[C@@H]5CC[C@]43C)[C@@H]2C1	2.28 µM	6.71 µM	1.61 µM	3.34 µM	3 µM	> 100 µM	2.28 µM	7.76 µM	1.82 µM	3.67 µM	1.7 µM	3.38 µM	2.25 µM	7.62 µM	2.44 µM	9.46 µM	2.32 µM	6.68 µM	1.69 µM	3.27 µM
Cc1cc(Cl)cc2c1NC(=O)C2=O (tested in a mixture with another compound)	–	> 100 µM	–	41.6 µM	–	> 100 µM	–	86 µM	–	> 100 µM	–	> 100 µM	–	> 100 µM	–	> 100 µM	–	51.1 µM	–	> 100 µM
O=c1c2ccccc2oc2ccc(OCCCCCCN3CCCCCC3)cc12	1.96 µM	4.6 µM	2.29 µM	4.78 µM	3.03 µM	16.7 µM	2.82 µM	11.5 µM	4.07 µM	16.2 µM	2.49 µM	6.49 µM	1.9 µM	4.35 µM	2.88 µM	13.9 µM	2.52 µM	5.28 µM	3.28 µM	11.5 µM
COc1cccc(/C=C/C(=O)c2cc3c(N)c(C(=O)Nc4cccc5ccccc45)sc3nc2C)c1	0.562 µM	> 50 µM	1.09 µM	4.74 µM	2.65 µM	> 50 µM	0.435 µM	3.06 µM	1.14 µM	2.98 µM	0.885 µM	2.74 µM	0.851 µM	1.85 µM	1.87 µM	> 50 µM	1.48 µM	10.6 µM	0.97 µM	2.06 µM
